Results from PubChem BioAssay (NCI).
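Step 1: Grow cells in 96-well plates. Step 2: Expose to compound for 48 hours at 5 concentrations. Step 3: Interpolate endpoints linearly; if unreached, use highest concentration. Abbreviation: GI50, concentration required for 50% inhibition of growth. The concentration for full growth arrest is given as TGI.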

Legend:
Assay in all cases: NCI tumour cell line growth inhibition, 48 h
LXFL 529 NSCLC = system: LXFL 529 NSCLC
M19-MEL melanoma = system: M19-MEL melanoma
DMS 273 small cell lung = system: DMS 273 small cell lung
HOP-18 NSCLC = system: HOP-18 NSCLC
RXF-631 renal = system: RXF-631 renal

SMILES | TGI (LXFL 529 NSCLC) [µM] | TGI (M19-MEL melanoma) [µM] | GI50 (LXFL 529 NSCLC) [µM] | TGI (DMS 273 small cell lung) [µM] | TGI (HOP-18 NSCLC) [µM] | TGI (RXF-631 renal) [µM]
CCOC(=O)NC(=O)c1cn(CCNCCO)c(=O)[nH]c1=O | > 100 | > 100 | – | – | – | –
[Cl-].[Rh+3].c1cnc2c(c1)ccc1cccnc12.c1cnc2c(c1)ccc1cccnc12.c1cnc2c(c1)ccc1cccnc12 | > 100 | – | > 100 | – | – | –
c1nc(N2CC2)c2cnn(C3CCCCO3)c2n1 (stereo unspecified) | > 100 | > 100 | – | > 100 | – | –
O=S(=O)(O)C1=C2Sc3ccccc3N=C2c2ccccc2C1 | 24.6 | – | – | 29.5 | 25.2 | 29.5
